These results are taken from patent publication EP0823908B1, “PYRIDO[2,3-d]PYRIMIDINES FOR INHIBITING PROTEIN TYROSINE KINASE MEDIATED [sequence] PROLIFERATION” (Warner-Lambert Company LLC, priority 1995, dated 1996).

The target of assay [1] is T1, mouse PDGF-β receptor tyrosine kinase (Mus musculus, UniProt P05622).
T1 construct: amplify a fragment of DNA that codes for the intracellular tyrosine kinase domain; made in house; host or cells: SF9 insect cells (baculovirus)
Briefly: PDGF receptor tyrosine kinase assay (32P incorporation into glutamate-tyrosine co-polymer). It counts as biochemical. The note with it: read-out: PDGFr-TK IC50. In outline:
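32P transfer from γ32P-ATP (50 µM ATP) to poly(Glu,Tyr) 4:1 was measured over 10 min at 25°C and counted after TCA precipitation onto filters, minus the no-enzyme background. Enzyme was baculovirus/SF9 lysate of the kinase domain, preincubated 10 min with inhibitor in Hepes pH 7.0, MnCl2, vanadate.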

For assay [2], the target named is T2, C-src kinase (Homo sapiens, UniProt P12931).
T2 construct: made in house; host or cells: baculovirus infected insect cells
T2 sequence (P12931 whole entry): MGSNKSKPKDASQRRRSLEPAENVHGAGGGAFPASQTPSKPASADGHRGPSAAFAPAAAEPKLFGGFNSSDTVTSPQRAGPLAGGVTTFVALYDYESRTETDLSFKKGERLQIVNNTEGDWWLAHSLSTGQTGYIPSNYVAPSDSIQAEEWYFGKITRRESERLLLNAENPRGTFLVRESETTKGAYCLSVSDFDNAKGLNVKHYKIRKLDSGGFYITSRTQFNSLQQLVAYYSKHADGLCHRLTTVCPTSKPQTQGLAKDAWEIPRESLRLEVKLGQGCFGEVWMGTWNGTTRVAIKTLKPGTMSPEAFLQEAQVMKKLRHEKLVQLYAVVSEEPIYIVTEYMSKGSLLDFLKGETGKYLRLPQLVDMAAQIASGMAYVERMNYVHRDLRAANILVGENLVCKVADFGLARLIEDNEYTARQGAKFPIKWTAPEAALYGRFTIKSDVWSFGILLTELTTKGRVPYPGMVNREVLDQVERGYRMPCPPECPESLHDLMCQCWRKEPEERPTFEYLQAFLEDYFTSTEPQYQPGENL
Nature of the assay: C-src kinase assay (poly GluTyr substrate). The assay is classed as biochemical. The note with it: read-out: C-src TK IC50.

T1 sequence (P05622 599-961 limits assumed): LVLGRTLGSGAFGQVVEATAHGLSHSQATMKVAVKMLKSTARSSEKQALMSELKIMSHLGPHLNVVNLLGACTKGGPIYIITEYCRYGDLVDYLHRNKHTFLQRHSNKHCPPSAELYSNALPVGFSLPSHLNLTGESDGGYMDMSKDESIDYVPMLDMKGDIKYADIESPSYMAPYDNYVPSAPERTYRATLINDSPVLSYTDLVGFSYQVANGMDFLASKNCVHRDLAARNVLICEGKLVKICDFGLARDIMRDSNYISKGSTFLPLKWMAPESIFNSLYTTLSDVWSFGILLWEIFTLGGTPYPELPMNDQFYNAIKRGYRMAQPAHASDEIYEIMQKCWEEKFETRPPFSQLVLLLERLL

Turning to `Cn1c(=O)c(-c2c(Cl)cccc2Cl)cc2cnc(Nc3ccccc3)nc21` [Example 54, 6-(2,6-Dichlorophenyl)-8-methyl-2-phenylamino-8H-pyrido[2,3-d]pyrimidin-7-one], the IC50 – broadly, the concentration that gives 50% inhibition – in assay [1] is 231 nM; in assay [2], 24 nM.
